Source: patent publication US5863952A, “Enantiomers of 1-(3,4-dichlorobenzyl)-2-methylaminoindane” (SmithKline Beecham plc, priority 1995, dated 1999)

Legend:
[1] = tested on: histological damage in the cerebral cortex after mid-cerebral artery occlusion; assay: Mouse MCAO model; assay type: in vivo, CD1 mice; conditions: 10 mg.kg-1 i.p. 30 minutes post-ischaemia then 10 mg.kg-1 b.i.d. for 3 days, histology on 4th day
Procedure: Male CD1 mice weighing 25-29 g were anaesthetised with tribromoethanol, placed on a heat-pad and maintained at 37° C. The mid-cerebral artery was cauterised and divided via the intra-cranial route. On completion of surgery the mice were placed in an incubator for 2 hours to maintain body temperature during the acute recovery phase. On the 4th day the mice were euthanased and the brains removed for histological analysis. The dosing protocol in these experiments was 10 mg.kg^-1 30 minutes post-ischaemia then 10 mg.kg^-1 b.i.d. for 3 days. Injections were given via the i.p. route, and the vehicle was distilled water.

[2] = tested on: voltage gated Ca2+ channel currents (remaining, predominantly N type, calcium current) in superior cervical ganglion neurons; assay: Ca2+ current measurement, whole cell recording in cultured superior cervical ganglion neurons; assay type: cell-based; conditions: 5 μM drug coapplied with 10 μM Nimodipine for three minutes; 10 mM Ba2+ as charge carrier; holding potential -80 mV, test potential 0 or +10 mV; Hydrochloride
Procedure: Lett., 77, 55-60 (1987). Cells were plated onto laminin coated plastic tissue culture dishes and incubated at 37° C. until just prior to recording. Electrophysiological recordings were performed from 2 to 9 days after dissociation. The pipette (internal solution) contained in mM: CsCl, 130; HEPES, 10; EGTA, 10; MgCl2, 4; ATP, 2; buffered to pH 7.2 with CsOH. Cells were bathed in a normal Tyrodes solution before establishment of whole cell recording when the bathing solution was changed to one allowing isolation of Ca^2+ currents. The external solution for recording Ca^2+ channel currents contained in mM: BaCl2, 10; TEA-Cl, 130; glucose, 10; HEPES, 10; MgCl2, 1; buffered to pH 7.3 with TEA-OH. […] Whole cell currents were recorded using List EPC-7 amplifiers and stored, digitised for later analysis using PC based software similar to that described previously (Benham & Tsien, Journal of Physiology (1988), 404, 767-784). Peak voltage gated Ca^2+ channel currents of up to 10 nA were recorded using 10 mM Ba^2+ as charge carrier. […] The rundown rate was measured in control conditions and extrapolated through the time of drug application to derive a rundown corrected control value. Once a constant calcium current had been recorded for 4 successive pulses (1 minute) 10 μM Nimodipine, a dihydropyridine, was applied to the cell to block L type calcium current. […]

[3] = tested on: histological damage in the CA1 region of the hippocampus after carotid artery occlusion; assay: Gerbil BCAO model; assay type: in vivo, Mongolian gerbils; conditions: 6 min carotid occlusion, 15 mg.kg-1 i.p. 30 minutes post-ischaemia then 5 mg.kg-1 b.i.d. for 3 days, histology on 5th day
Procedure: Male Mongolian gerbils weighing between 60-80 g were anaesthetised with halothane, placed on a heated mat and the carotid arteries occluded for 6 min. After reperfusion, the animals were sutured and placed in an incubator for 2 hours to maintain body temperature during the acute recovery phase. The animals were then caged separately and on the 5th day after the day of surgery they were euthanased and the brains removed for histological analysis. The dosing protocol in these experiments was 15 mg.kg^-1 30 minutes post-ischaemia then 5 mg.kg^-1 b.i.d. for 3 days. Injections were given via the i.p. route, and the vehicle was distilled water.

SMILES	attenuation of histological damage in the cerebral cortex compared with ischaemic vehicle-treated animals [1]	inhibition of plateau Ca2+ current [2] [%]	attenuation of histological damage in the CA1 region of the hippocampus compared with ischaemic vehicle-treated animals [3]
CN[C@H]1Cc2ccccc2[C@H]1Cc1ccc(Cl)c(Cl)c1.Cl (single isomer, unassigned) [Example 1, (+)cis-1-(3,4-Dichlorobenzyl)-2-methylaminoindane Hydrochloride]	significant attenuation of the histological damage	95	significant attenuation of the histological damage
CN[C@H]1Cc2ccccc2[C@H]1Cc1ccc(Cl)c(Cl)c1.Cl (single isomer, unassigned) [Example 2, (-)cis-1-(3,4-Dichlorobenzyl)-2-methylaminoindane Hydrochloride]	significant attenuation of the histological damage	99	significant attenuation of the histological damage
